The text below walks through data of patent US20130116185A1, “PHOSPHATIDYLINOSITOL 3-KINASES ACTIVITY REGULATOR INCLUDING THE FIFTH ZINC FINGER DOMAIN OF FOG2” (SNU R&DB FOUNDATION, priority 2010, published 2013).

Entries after “also recorded” stand apart in the source; their conditions may differ.

The test system of one assay is MCF 7. As to the kind of experiment: Apoptosis by FACS analysis in MCF7 cells. It counts as cell-based. The following applies: synthesized peptides, FIG. 7D. An excerpt: FIG. 7D is a graph showing the apoptotic effect by synthesized zinc finger domain peptides of FOG2 in MCF7 cells according to FACS analysis;
(A flow cytometer gives signals particle by particle.)

The subject of assay [1] is MDA MB 231 cells. Nature of the assay: Apoptosis by FACS analysis (propidium iodide) in MDA MB 231 cells. It counts as cell-based. The settings on record: synthesized peptides, FIG. 7C. The method, then:
PI3K inactivation has been reported to cause cancer cell apoptosis, and FOG2 is known to inhibit the PI3K activity. To test whether PI3K inactivation by overexpressing FOG2 induces apoptosis, MDA MB 231 cells overexpressed FOG2 were analyzed with FACS.
MDA MB 231 cells were incubated with Full-FOG2[1-1151], FOG2[1-412], FOG2[413-789] or FOG2[802-1151]. The cells (5×10^4) were seeded in a 12-well plate and transfected with 1 μg of Full-FOG2[1-1151], FOG2[1-412], FOG2[413-789] or FOG2[802-1151] using Lipofectamine 2000. The cells were incubated at 37° C. for 2 days and subject to FACS analysis.
The cells were incubated with FOG2 fragments and fixed with 70% ethanol for 16 hr. The fixed cells were stained using RNase (5 mg/ml) and propidium iodide ([…]). The amount of DNA in stained cells was analyzed with Cell Quest program of FACS caliber (Becton Dickinson).

For assay [2], the target named is T1, PI3K (Homo sapiens, UniProt P27986). Nature of the assay: PI3K activity in MDA MB 231 cells incubated with zinc finger domain peptides. It counts as cell-based. The settings on record: synthesized peptides, FIG. 5. Details: The cell lysates were immunoprecipitated with p85α (sc-1637, Santa Cruz) and Protein G-Sepharose beads; endogenous in cells. Here is the method:
(§1) For measurement of PI3K activity, 10 μl of sonicated PIP2 (1 μg/μl, Calbiochem), 10 μl of 100 mM MgCl2 and 1 μl of [-^32P]ATP (500 μCi/ml) were added to the kinase buffer (10 mM Tris-HCl (pH 7.4), 150 mM NaCl, 1 mM Na3VO4, 10 mM ZnCl2) and incubated at 37° C. for 30 min. After incubation, 20 μl of 6 N HCl was added to stop the reaction and PIP2 was extracted by treatment with 200 μl of methanol:chloroform (1:1) solution. The amount of radioactively labeled PIP2 in the extract was measured using a scintillator counter.
For peptide treatment, cells were trypsinized to detach them from a culture dish and their aliquot (2×10^5 cells) was incubated with 4 μM peptides in 100 mm dishes. The control was incubated with Mock (DMSO).

The test system of assay [3] is MDA MB 231 cells. Nature of the assay: Cell migration, modified Boyden chamber method. It counts as cell-based. The settings on record: 4 μM peptide, 2 days of treatment, 18 hr migration, FIG. 3B. Here is the method:
MDA MB 231 cells were transfected with pCK-flag (control), FOG2-wt (wild type) and FOG2 mutants having modified zinc finger domain (FOG2-ZF-5-m and FOG2-ZF-6-m). The cell migration was then analyzed using the modified Boyden chamber method (Albini A et al., Cancer Res 1987 47:3239-45). Following the transfection for 24 hr, MDA MB 231 cells (1×10^5) were suspended in a serum-free medium and seeded in triplicate in the upper part of BD chamber ([…] pore size). The lower part was filled with the serum-free medium. Following the incubation at 37° C. for 18 hr, non-migrating cells positioned at the upper surface of filters were cleaned with a cotton swab. The migrating cells passing through the lower surface of filters were fixed with 70% ethanol and treated with the Giemsa staining solution for 50 min. Then, the cells were rinsed with water and observed under a microscope. The cell migration rate was determined by counting the number of cells present in randomly-selected six sections and the migration range was expressed as the average number of cells per a microscopic field.
MDA MB 231 cells were incubated with 4 μM Mock (control, DMSO), 4 μM ZF-5-wt-24, 4 μM ZF-5-m-24, 4 μM ZF-5-wt-20 or 4 μM ZF-3-wt-21. After treatment, the cell migration was analyzed using the modified Boyden chamber method (Albini A et al., Cancer Res 1987 47:3239-45). After 2 days of treatment, MDA MB 231 cells (1×10^5) were suspended in the serum free medium and seeded in triplicate in the upper part of BD chamber ([…] pore size). The lower part was filled with the serum free medium. Following the incubation at 37° C. for 18 hr, non-migrating cells positioned at the upper surface of filters were cleaned with the cotton swab. The migrating cells passing through the lower side surface of filters were fixed with 70% ethanol and stained using the Giemsa stain method. The cell migration rate was determined by counting the number of cells present in randomly-selected six sections and the migration range was expressed as the average number of cells per a microscopic field.

The next assay has as its system Akt. As to the kind of experiment: Akt phosphorylation by Western blot in Hep3B cells treated with peptide and IGF-1. It counts as cell-based. The settings on record: 4 μM peptide 2 days, serum-free 24 hr, IGF-1 30 min, FIG. 2D. The method, then: To test whether the Akt activity induced by IGF-1 treatment is inhibited by the synthesized peptides, Hep3B cells were incubated with IGF-1 and ZF-5-wt-24 […] and the expressions of Akt and pAkt were analyzed.
Hep3B cells were incubated with 4 μM ZF-5-wt-24 for 2 days and then further incubated in a serum-free media for 24 hr. Afterwards, the cells were incubated with IGF-1 for 30 min and subject to the Western blot analysis. Mock (DMSO) was used as a control.
For orientation: In western blotting, separated proteins are transferred to a membrane and probed.

Assay [4] addresses T1, PI3K. As to the kind of experiment: IGF-1-induced PI3K activation in Hep3B cells incubated with peptides. It counts as cell-based. Details: The cell lysates were immunoprecipitated with p85α (sc-1637, Santa Cruz) and Protein G-Sepharose beads; endogenous in cells; host or cells: Hep3B. The settings on record: 4 μM peptides, 48 hr, FIG. 2C. The method, then: as §1
In addition, Hep3B liver cancer cells were incubated with 4 μM peptides for 48 hr and the PI3K activity was analyzed.

The next assay concerns HCT116 cells. Nature of the assay: Colony formation assay in 0.3% agar. The following applies: synthesized peptide, one week, colonies over 1 mm counted, FIG. 3C. It counts as cell-based. Here is the method: HCT116 cells (1×10^3) were trypsinized and seeded in triplicate in a six-well plate. The serum-free medium containing the synthesized peptide in <Example 3> and 0.3% agar was incubated with the cells. One week after treatment, the generated colony was visualized with 0.5 mg/ml NBT (Nitro blue tetrazolium chloride) and the colonies over 1 mm in diameter were counted.

Assay [5] deals with MDA MB 231 cells. Nature of the assay: Cell proliferation MTT assay. It counts as cell-based. The method, then:
Because the PI3K activation is critical in cell growth, the cell proliferation was analyzed to investigate the inhibitory effect of the FOG2 zinc finger domain using the MTT assay.
MDA MB 231 cells were seeded in a 96-well plate, and transfected with 100 ng DNA of pCKflag, FOG2-wt, FOG2-ZF-5-m or FOG2-ZF-6-m using Lipofectamine 2000. On 3 days post-transfection, the MTT assay was performed.
MDA MB 231 cells (2×10^3 cells) were seeded in a 96-well plate and treated with 4 μM each peptide for 3 days. After the treatment, 50 μl of MTT solution (2 mg/ml) was added to each well, incubated at 37° C. for 1 hr. Then, 150 μl of DMSO was added to each well and the absorbance value of each well was measured at 590 nm using a microplate reader.

In assay [6] the target is T1, PI3K. Nature of the assay: In vitro competition analysis (PI3K immunoprecipitated from 293T cell lysates with p85α antibody plus peptides). It counts as biochemical. More on the design: The cell lysates were immunoprecipitated with p85α (sc-1637, Santa Cruz) and Protein G-Sepharose beads; endogenous in cells. The following applies: peptides 1 μM, 5 μM and 10 μM, dose-dependent, compared with ZF-3-wt-21, FIG. 2B. Here is the method:
The in vitro competition analysis was performed by PI3K immunoprecipitation in 293T cells. The activated PI3K was extracted from the 293T cell lysates by immunoprecipitating with p85α antibody simultaneously with addition of the synthesized peptides (1 μM, 5 μM and 10 μM). The PI3K activation was induced as described above.

T1 sequence (P27986 whole entry, the tested form may be a part): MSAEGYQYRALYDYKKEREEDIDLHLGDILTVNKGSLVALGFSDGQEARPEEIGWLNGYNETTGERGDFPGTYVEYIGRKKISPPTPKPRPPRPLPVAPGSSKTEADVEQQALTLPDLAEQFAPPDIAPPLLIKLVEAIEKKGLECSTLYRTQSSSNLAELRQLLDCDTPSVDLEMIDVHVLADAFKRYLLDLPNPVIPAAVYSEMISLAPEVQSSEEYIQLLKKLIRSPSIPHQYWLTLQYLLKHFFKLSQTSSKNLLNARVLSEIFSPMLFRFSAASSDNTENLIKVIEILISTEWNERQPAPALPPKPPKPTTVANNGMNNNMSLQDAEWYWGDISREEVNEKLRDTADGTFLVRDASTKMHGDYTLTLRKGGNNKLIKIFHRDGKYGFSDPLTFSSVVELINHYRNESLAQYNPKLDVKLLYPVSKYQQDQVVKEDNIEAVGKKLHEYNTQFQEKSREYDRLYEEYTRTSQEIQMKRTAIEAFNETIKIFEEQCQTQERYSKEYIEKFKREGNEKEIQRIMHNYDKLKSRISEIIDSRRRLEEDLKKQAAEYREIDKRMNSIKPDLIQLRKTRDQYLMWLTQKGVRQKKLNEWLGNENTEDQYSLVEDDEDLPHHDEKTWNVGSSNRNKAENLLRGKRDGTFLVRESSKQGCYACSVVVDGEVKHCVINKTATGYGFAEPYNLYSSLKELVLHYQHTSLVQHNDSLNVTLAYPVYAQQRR

In the case of “ZF-5-wt-24: The peptide comprising a portion of the fifth zinc finger domain of FOG2 (24 amino acids); residues 547-570 (GATCFECNITFNNLDNYLVHKKHY)”, the apoptosis result with MCF 7 and in the assay with MDA MB 231 cells [1] was “promoted apoptosis” throughout. In addition, the PI3K activity result in the assay with PI3K [2] is “decrease PI3K activity”. Besides, the “reduction of cell migration” value in the assay on MDA MB 231 cells [3] is “reduce the cell migration”. For the same substance, in the assay with Akt, the “Akt phosphorylation induced by IGF-1 stimulation” value is “reduced”. Besides, in the assay with PI3K [4], the “IGF-1-induced PI3K activation” value is on record as “inhibited”. Besides, the “number of colonies / colony formation” value in the assay with HCT116 cells is “reduces the colony formation; also recorded: reduced”. In addition, the “reduction of cell proliferation” value with MDA MB 231 cells [5] (4 μM peptide for 3 days) is reported as “about 40%”. The “inhibitory effect on cell proliferation” value in the assay on MDA MB 231 cells [5] (synthesized peptide, increasing concentration, FIG. 6B) is “reduces the cancer cell proliferation; also recorded: became more prominent as ZF-5-wt-24 concentration increased”. Further, the “reduction of PI3K activity” value in the assay with PI3K [6] was “about 40%”.
